What was measured:
[1] = molecular target: T1, CD95/FADD interaction (DD-FADD/DD-CD95) (Homo sapiens, UniProt P25445+Q13158); assay: Renilla luciferase protein-fragment complementation assay (PCA), DD-FADD-F1 / DD-CD95-F2; assay type: cell-based; details: luminescence
T1 construct: DD corresponds to amino acids 210 to 303 of CD95; expressed in transfected cells; host or cells: HEK293T
T1 sequence (P25445 226-319 limits assumed): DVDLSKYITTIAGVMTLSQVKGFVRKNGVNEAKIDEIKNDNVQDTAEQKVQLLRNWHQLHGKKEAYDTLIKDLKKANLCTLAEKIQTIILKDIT
T1 sequence (Q13158 97-181 limits assumed): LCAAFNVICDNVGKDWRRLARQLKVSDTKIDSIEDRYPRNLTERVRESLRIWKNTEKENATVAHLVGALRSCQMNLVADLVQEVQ
Description: (§1) A. SH3—PLCγ1-F1 or DD-FADD-F1 (inset) was co-transfected into HEK293T cells along with whole CID-CD95-F2 or DD-CD95-F2 (inset). After 24 h, cells were exposed for 4 h to different compounds according to the invention at different concentrations and luminescence was assessed. The tested compounds were the compounds number 2, 3, 4, 5, 6, 7, 10, 11, 13 and 14.
(§2) F1 corresponds to the N-terminal domain of Renilla luciferase enzyme split into two fragments (F1 and F2, F2 being the C-terminal domain—see Stefan, E. et al. Proc Natl Acad Sci USA 104, 16916-21 (2007)). These F1 and F2 domains were co-expressed in HEK cells, whereupon the interaction between CD95-CID and PLCγ1, or CD95-DD and DD-FADD, allowed protein refolding and subsequent recovery of Renilla luciferase activity.
(§3) CID corresponds to amino acids 175 to 210 of CD95; DD corresponds to amino acids 210 to 303 of CD95.
(§4) Renilla luciferase-based protein-fragment complementation assay (PCA): HEK293T cells were electroporated with 10 μg DNA using a BTM-830 electroporation generator (BTX Instrument Division, Harvard Apparatus). Transfected cells were cultured for 24 h prior to PCA analyses as previously described (Poissonnier, A. et al., Immunity. 2016, 45, 209-223). Briefly, transfected cells (10^6) were washed and resuspended in 100 μL PBS and placed in OptiPlate-96 plates (Perkin-Elmer, Waltham, Mass., USA). Coelenterazine-h (5 μM, Sigma-Aldrich) was added to each well and Renilla luciferase activity was monitored for the first 10 seconds using Infinite200Pro (Tecan, Männedorf, Switzerland).

[2] = molecular target: T2, CD95/PLCγ1 interaction (SH3-PLCg1/CID-CD95) (Homo sapiens, UniProt P19174); assay: Renilla luciferase protein-fragment complementation assay (PCA), SH3-PLCγ1-F1 / CID-CD95-F2; assay type: cell-based; details: luminescence; for IC50: HEK293T cells, exposed 4 h
T2 construct: SH3—PLCγ1-F1 or DD-FADD-F1 (inset) was co-transfected into HEK293T cells; expressed in transfected cells; host or cells: HEK293T
T2 sequence (P19174 791-851): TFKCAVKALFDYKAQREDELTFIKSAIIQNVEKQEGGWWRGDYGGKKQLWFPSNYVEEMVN
Description: as §1, §2, §3, §4

[3] = tested on: CD95-mediated Ca2+ response in Th17 cells; assay: CD95-mediated Ca2+ response in Th17 cells (FIG. 5); assay type: cell-based, human; details: 1 μM, 1 h pre-incubation, cl-CD95L 100 ng/mL
Description: All cells were purchased from ATCC (Molsheim Cedex, France). The T cell lines H9 and CEM were cultured in RPMI supplemented with 8% heat-inactivated FCS (v/v) and 2 mM L-glutamine at 37° C./5% CO2. HEK293T cells were cultured at 37° C./5% CO2 in DMEM supplemented with 8% heat-inactivated FCS and 2 mM L-glutamine. PBMCs were isolated from buffy-coat by density gradient centrifugation on lymphocyte separation medium (Eurobio, Les Ulis, France). Th17 cells (CD4+CCR6+CXCR3−) were sorted from PBMCs using a Th17 Enrichment kit (StemCell Technologies, Grenoble, France). Human umbilical vein endothelial cells (HUVEC) were grown in Endothelial Growth Medium (EGM) supplemented with 2% FCS and EGM-2 Bullet Kit (Lonza, Levallois-Perret, France).
Th17 cells were pre-incubated for 1 h with TAT-control, minCID, or compound 13 (each at 1 μM), and then stimulated with cl-CD95L (100 ng/mL). [Ca^2+]CYT was assessed in Fluo2 LR-AM (2 μM)-loaded cells.

Compound | IC50 ([1]; HEK293T cells, exposed 4 h) | IC50 [2] | also measured
N=C(N)NCCCC(C(=O)NCCN(C(=O)CCCCCN)C(Cc1cnc[nH]1)C(=O)NCCN(C(=O)CCc1ccc(N)cc1)C(CCCCN)C(N)=O)N(CCN)C(=O)CCS (centres unmarked) [Compound 27] |  | 856 µM | 
N=C(N)NCCCCC(=O)N(CCNC(=O)C(Cc1cnc[nH]1)N(CCNC(=O)C(CCCNC(=N)N)N(CCN)C(=O)CCC(N)=O)C(=O)CCCCCN)C(CCCCN)C(N)=O (centres unmarked) [Compound 17] | 720 µM | 343 µM | 
N=C(N)NCCCCC(=O)N(CCNC(=O)C(N)CS)C(CCCCN)C(=O)NCCN(C(=O)CCc1c[nH]cn1)C(CCCNC(=N)N)C(=O)NCCNC(=O)CCCCCN (centres unmarked) [Compound 10] | 448 µM | 400 µM | 
N=C(N)NCCCCC(=O)N(CCNC(=O)C(Cc1cnc[nH]1)N(CCNC(=O)C(CCCNC(=N)N)N(CCN)C(=O)CCS)C(=O)CCCCCC(N)=O)C(CCCCN)C(N)=O (centres unmarked) [Compound 2] | 311 µM | 315 µM | 
N=C(N)NCCCCC(=O)N(CCNC(=O)C(Cc1cnc[nH]1)N(CCNC(=O)C(Cc1cccnc1)N(CCN)C(=O)CCS)C(=O)CCCCCN)C(CCCCN)C(N)=O (centres unmarked) [Compound 30] | 4250 µM | 907 µM | 
N=C(N)NCCCC(C(=O)NCCN(C(=O)CCCCCN)C(Cc1cnc[nH]1)C(=O)NCCN(C(=O)CCc1ccc(O)cc1)C(CCCCN)C(N)=O)N(CCN)C(=O)CCS (centres unmarked) [Compound 26] |  | 655 µM | 
minCID: minimum domain of CID required for interaction with PLCγ1; amino acids 182-188 (TCRKHRK) (SEQ ID NO: 1) of human CD95; positive control (minCID corresponding to amino acids 182-188 of human CD95; listed as Homo sapiens) [reference compound] |  |  | effect on the CD95/FADD interaction ([1]; HEK cells, 4 h, FIGS. 1A, 1B, 1C (inset)): without affecting the CD95/FADD interaction; disruption of the CD95/PLCγ1 interaction ([2]; HEK cells, 4 h, FIGS. 1A, 1B, 1C): disrupt the CD95/PLCγ1 interaction; CD95-mediated Ca2+ response in Th17 cells [3]: inhibited
CC(O)C(N)C(=O)NCCN(C(=O)CCS)C(CCCNC(=N)N)C(=O)NCCN(C(=O)CCc1c[nH]c2ccccc12)C(Cc1c[nH]cn1)C(=O)NCCN(C(=O)CCCCNC(=N)N)C(CCCCN)C(N)=O (centres unmarked) [Compound 6] | 277 µM | 356 µM | 
N=C(N)NCCCC(C(=O)NCCN(C(=O)CCCCCN)C(Cc1cnc[nH]1)C(=O)NCCN(C(=O)CCc1c[nH]c2ccccc12)C(CCCCN)C(N)=O)N(CCN)C(=O)CCS (centres unmarked) [Compound 28] | 2650 µM | 343 µM | 

More lines, in order of falling IC50 [2], values ahead:

IC50 ([1]; HEK293T cells, exposed 4 h) | IC50 [2] | Compound | also measured
629 µM | 309 µM | CC(O)CC(=O)NC(CS)C(=O)NCCN(C(=O)CCCCNC(=N)N)C(CCCCN)C(=O)NCCN(C(=O)CCc1c[nH]cn1)C(CCCNC(=N)N)C(=O)NCCNC(=O)CCCCCN (centres unmarked) [Compound 11] | 
319 µM | 229 µM | CC(O)CC(=O)N(CCN)C(CS)C(=O)NCCN(C(=O)CCCCNC(=N)N)C(CCCCN)C(=O)NCCN(C(=O)CCc1c[nH]cn1)C(CCCNC(=N)N)C(=O)NCCNC(=O)CCCCCN (centres unmarked) [Compound 12] | 
245 µM | 203 µM | N=C(N)NCCCCC(=O)N(CCNC(=O)C(Cc1cnc[nH]1)N(CCNC(=O)C(CCCNC(=N)N)N(CCN)C(=O)CCS)C(=O)CCC1CNc2ccccc21)C(CCCCN)C(N)=O (centres unmarked) [Compound 4] | 
213 µM | 196 µM | N=C(N)NCCCCC(=O)N(CCNC(=O)C(Cc1cnc[nH]1)N(CCNC(=O)C(CCCNC(=N)N)N(CCN)C(=O)CCS)C(=O)CCc1ccc(O)cc1)C(CCCCN)C(N)=O (centres unmarked) [Compound 5] | 
246 µM | 185 µM | N=C(N)NCCCCC(=O)N(CCNC(=O)C(Cc1cnc[nH]1)N(CCNC(=O)C(CCCNC(=N)N)N(CCN)C(=O)CCS)C(=O)CCc1c[nH]c2ccccc12)C(CCCCN)C(N)=O (centres unmarked) [Compound 3] | 
173 µM | 85.5 µM | N=C(N)NCCCCC(=O)N(CCNC(=O)C(Cc1cnc[nH]1)N(CCNC(=O)C(Cc1c[nH]c2ccccc12)N(CCN)C(=O)CCS)C(=O)CCCCCN)C(CCCCN)C(N)=O (centres unmarked) [Compound 31] | 
3930 µM | 79 µM | N=C(N)NCCCCC(=O)N(CCNC(=O)C(Cc1cnc[nH]1)N(CCNC(=O)C(CCCNC(=N)N)N(CCN)C(=O)CCO)C(=O)CCCCCN)C(CCCCN)C(N)=O (centres unmarked) [Compound 16] | 
325 µM | 78.6 µM | CC(O)C(N)C(=O)NCCN(C(=O)CCS)C(Cc1c[nH]c2ccccc12)C(=O)NCCN(C(=O)CCCCCN)C(Cc1cnc[nH]1)C(=O)NCCN(C(=O)CCCCNC(=N)N)C(CCCCN)C(N)=O (centres unmarked) [Compound 7] | 
 | 77.2 µM | CC(O)C(N)C(=O)NCCN(C(=O)CCS)C(CCCNC(=N)N)C(=O)NCCN(C(=O)CCCCCN)C(Cc1cnc[nH]1)C(=O)NCCN(C(=O)CCCCNC(=N)N)C(CCCCN)C(N)=O (centres unmarked) [Compound 13] | IC50 DD-FADD/DD-CD95 ([1]; HEK293T cells, exposed 4 h): ns
3800 µM | 75.2 µM | N=C(N)NCCCCC(=O)N(CCNC(=O)C(Cc1cnc[nH]1)N(CCNC(=O)C(CCCNC(=N)N)N(CCN)C(=O)CCS)C(=O)CCCCCN)C(CCCCN)C(N)=O (centres unmarked) [Compound 14] | 
164 µM | 60.9 µM | CCC(=O)N(CCN)C(CCCNC(=N)N)C(=O)NCCN(C(=O)CCCCCN)C(Cc1cnc[nH]1)C(=O)NCCN(C(=O)CCCCNC(=N)N)C(CCCCN)C(N)=O (centres unmarked) [Compound 15] | 
33.2 µM | 34.7 µM | CCCCCCCCCCCCCCCCCC(=O)N(CCN)C(CCCNC(=N)N)C(=O)NCCN(C(=O)CCCCCN)C(Cc1cnc[nH]1)C(=O)NCCN(C(=O)CCCCNC(=N)N)C(CCCCN)C(N)=O (centres unmarked) [Compound 1] | 
